Source: US20230085307A1, “PYRIDAZINONE COMPOUND AND HERBICIDE” (NISSAN CHEMICAL CORPORATION, priority 2019, published 2023)

Experiments:
windgrass [1] = test: Test Example 5: herbicidal effect by foliage application, plastic box (Table 20, symbol L); type: in vivo, windgrass (Apera spica-venti); details: foliage application, three weeks after application
Outline: (§1)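 Sow seeds spot-wise in sterilized diluvial soil; cover with ~1.5 cm soil. Grow 14 days in greenhouse, 25° C. to 30° C. Spray foliage with emulsion diluted to predetermined amount. Rate effect after 3 weeks.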

Italian ryegrass [2] = test: Test Example 4: herbicidal effect by soil treatment (Table 19, symbol K); type: in vivo, Italian ryegrass (Lolium multiflorum)
Outline: (§2)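 Soil-surface application: an emulsion agent diluted with water to the predetermined dose is sprayed uniformly over seeds lying under roughly 1.5 cm of sterilized diluvial soil. Boxes stay in a greenhouse at 25° C. to 30° C. Three weeks later, each species is graded on previously defined criteria.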

blackgrass [3] = test: Test Example 4: herbicidal effect by soil treatment (Table 19, symbol J); type: in vivo, blackgrass (Alopecurus myosuroides)
Outline: as §2

persian speedwell [4] = test: Test Example 5: herbicidal effect by foliage application, plastic box (Table 20, symbol R); type: in vivo, Persian speedwell (Veronica persica); details: foliage application, three weeks after application
Outline: as §1

Chinese sprangletop = test: Test Example 3: herbicidal effect by foliage application, Wagner pot (Table 18, symbol D); type: in vivo, chinese sprangletop (Leptochloa chinensis); details: 320 g/ha
Outline: (§3)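 Plants were sown in alluvial soil held under 0.1–0.5 cm standing water and grown 14 days in a greenhouse at 25–30 °C. An emulsifiable formulation, water-diluted to the set dose, was then sprayed onto the foliage, and effects were scored three weeks later using previously defined criteria.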

chickweed [5] = test: Test Example 4: herbicidal effect by soil treatment (Table 19, symbol P); type: in vivo, common chickweed (Stellaria media)
Outline: as §2

green foxtail [6] = test: Test Example 5: herbicidal effect by foliage application, plastic box (Table 20, symbol G); type: in vivo, green foxtail (Setaria viridis); details: foliage application, three weeks after application
Outline: as §1

lambsquarters [7] = test: Test Example 5: herbicidal effect by foliage application, plastic box (Table 20, symbol O); type: in vivo, lambsquarters (Chenopodium album); details: foliage application, three weeks after application
Outline: as §1

oval-leafed pondweed = test: Test Example 1: herbicidal activity, application before weed generation under submerged conditions (Table 16, symbol C); type: in vivo, oval-leafed pondweed (Monochoria vaginalis); details: 320 g/ha applied herbicide
Outline: (§4)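 Alluvial soil was flooded to 4 cm depth, weed seeds were sown mixed and 2.5-leaf rice seedlings were transplanted. On sowing day, the compound's emulsion, diluted in water to a set dose, was applied to the water surface. Plants grew at 25–30 °C and were scored 0–5 after three weeks.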

Japanese bulrush = test: Test Example 1: herbicidal activity, application before weed generation under submerged conditions (Table 16, symbol B); type: in vivo, Japanese bulrush (Schoenoplectus juncoides); details: 320 g/ha applied herbicide
Outline: as §4

southern crabgrass [8] = test: Test Example 5: herbicidal effect by foliage application, plastic box (Table 20, symbol F); type: in vivo, southern crabgrass (Digitaria ciliaris); details: foliage application, three weeks after application
Outline: as §1

lambsquarters [9] = test: Test Example 4: herbicidal effect by soil treatment (Table 19, symbol O); type: in vivo, lambsquarters (Chenopodium album)
Outline: as §2

southern crabgrass [10] = test: Test Example 4: herbicidal effect by soil treatment (Table 19, symbol F); type: in vivo, southern crabgrass (Digitaria ciliaris)
Outline: as §2

redroot pigweed [11] = test: Test Example 5: herbicidal effect by foliage application, plastic box (Table 20, symbol N); type: in vivo, redroot pigweed (Amaranthus retroflexus); details: foliage application, three weeks after application
Outline: as §1

rice flat sedge = test: Test Example 3: herbicidal effect by foliage application, Wagner pot (Table 18, symbol E); type: in vivo, rice flat sedge (Cyperus iria); details: 320 g/ha
Outline: as §3

green foxtail [12] = test: Test Example 4: herbicidal effect by soil treatment (Table 19, symbol G); type: in vivo, green foxtail (Setaria viridis)
Outline: as §2

redroot pigweed [13] = test: Test Example 4: herbicidal effect by soil treatment (Table 19, symbol N); type: in vivo, redroot pigweed (Amaranthus retroflexus)
Outline: as §2

late watergrass = test: Test Example 1: herbicidal activity, application before weed generation under submerged conditions (Table 16, symbol A); type: in vivo, late watergrass (Echinochloa oryzicola); details: 320 g/ha applied herbicide
Outline: as §4

Italian ryegrass [14] = test: Test Example 5: herbicidal effect by foliage application, plastic box (Table 20, symbol K); type: in vivo, Italian ryegrass (Lolium multiflorum); details: foliage application, three weeks after application
Outline: as §1

barnyard grass [15] = test: Test Example 4: herbicidal effect by soil treatment (Table 19, symbol H); type: in vivo, barnyard grass (Echinochloa crus-galli)
Outline: as §2

velvetleaf [16] = test: Test Example 4: herbicidal effect by soil treatment (Table 19, symbol M); type: in vivo, velvetleaf (Abutilon theophrasti)
Outline: as §2

persian speedwell [17] = test: Test Example 4: herbicidal effect by soil treatment (Table 19, symbol R); type: in vivo, Persian speedwell (Veronica persica)
Outline: as §2

wild oat [18] = test: Test Example 4: herbicidal effect by soil treatment (Table 19, symbol I); type: in vivo, wild oat (Avena fatua)
Outline: as §2

chickweed [19] = test: Test Example 5: herbicidal effect by foliage application, plastic box (Table 20, symbol P); type: in vivo, common chickweed (Stellaria media); details: foliage application, three weeks after application
Outline: as §1

blackgrass [20] = test: Test Example 5: herbicidal effect by foliage application, plastic box (Table 20, symbol J); type: in vivo, blackgrass (Alopecurus myosuroides); details: foliage application, three weeks after application
Outline: as §1

barnyard grass [21] = test: Test Example 5: herbicidal effect by foliage application, plastic box (Table 20, symbol H); type: in vivo, barnyard grass (Echinochloa crus-galli); details: foliage application, three weeks after application
Outline: as §1

barnyard grass [22] = test: Test Example 3: herbicidal effect by foliage application, Wagner pot (Table 18, symbol H); type: in vivo, barnyard grass (Echinochloa crus-galli); details: 320 g/ha
Outline: as §3

wild oat [23] = test: Test Example 5: herbicidal effect by foliage application, plastic box (Table 20, symbol I); type: in vivo, wild oat (Avena fatua); details: foliage application, three weeks after application
Outline: as §1

velvetleaf [24] = test: Test Example 5: herbicidal effect by foliage application, plastic box (Table 20, symbol M); type: in vivo, velvetleaf (Abutilon theophrasti); details: foliage application, three weeks after application
Outline: as §1

windgrass [25] = test: Test Example 4: herbicidal effect by soil treatment (Table 19, symbol L); type: in vivo, windgrass (Apera spica-venti)
Outline: as §2

[26] = amount of applied herbicide 320 g/ha

## CCCC(=O)Oc1c(C)nn(C)c(=O)c1-c1c(-c2ccccc2OCC)sc2ccccc12 [1-012]
Windgrass [1]; 320 g/ha
  herbicidal effect grade, L: windgrass: 4 (Herbicidal rate of 70% or more and less than 90%)
Italian ryegrass [2]; [26]
  herbicidal effect rating, K: Italian ryegrass: 0 (Herbicidal rate of 5% or less (almost no effect))
Blackgrass [3]; [26]
  herbicidal effect rating, J: blackgrass: 5 (Herbicidal rate of 90% or more (almost completely withered))
Persian speedwell [4]; 320 g/ha
  herbicidal effect grade, R: persian speedwell: 5 (Herbicidal rate of 90% or more (almost completely withered))
Chinese sprangletop
  herbicidal effect on D (Chinese sprangletop), rating 0-5: 0 (Herbicidal rate of 5% or less (almost no effect))
Chickweed [5]; [26]
  herbicidal effect rating, P: chickweed: 0 (Herbicidal rate of 5% or less (almost no effect))
Green foxtail [6]; 320 g/ha
  herbicidal effect grade, G: green foxtail: 5 (Herbicidal rate of 90% or more (almost completely withered))
Lambsquarters [7]; 320 g/ha
  herbicidal effect grade, O: lambsquarters: 2 (Herbicidal rate of 20% or more and less than 40%)
oval-leafed pondweed
  Herbicidal effect on C: oval-leafed pondweed (grade 0-5): 3 (Herbicidal rate of 40% or more and less than 70%)
Japanese bulrush
  Herbicidal effect on B: Japanese bulrush (grade 0-5): 1 (Herbicidal rate of 5% or more and less than 20%)
Southern crabgrass [8]; 320 g/ha
  herbicidal effect grade, F: southern crabgrass: 5 (Herbicidal rate of 90% or more (almost completely withered))
Lambsquarters [9]; [26]
  herbicidal effect rating, O: lambsquarters: 0 (Herbicidal rate of 5% or less (almost no effect))
Southern crabgrass [10]; [26]
  herbicidal effect rating, F: southern crabgrass: 4 (Herbicidal rate of 70% or more and less than 90%)
Redroot pigweed [11]; 320 g/ha
  herbicidal effect grade, N: redroot pigweed: 3 (Herbicidal rate of 40% or more and less than 70%)
Rice flat sedge
  herbicidal effect on E (rice flat sedge), rating 0-5: 5 (Herbicidal rate of 90% or more (almost completely withered))
Green foxtail [12]; [26]
  herbicidal effect rating, G: green foxtail: 5 (Herbicidal rate of 90% or more (almost completely withered))
Redroot pigweed [13]; [26]
  herbicidal effect rating, N: redroot pigweed: 0 (Herbicidal rate of 5% or less (almost no effect))
Late watergrass
  Herbicidal effect on A: late watergrass (grade 0-5): 3 (Herbicidal rate of 40% or more and less than 70%)
Italian ryegrass [14]; 320 g/ha
  herbicidal effect grade, K: Italian ryegrass: 3 (Herbicidal rate of 40% or more and less than 70%)
Barnyard grass [15]; [26]
  herbicidal effect rating, H: barnyard grass: 5 (Herbicidal rate of 90% or more (almost completely withered))
Velvetleaf [16]; [26]
  herbicidal effect rating, M: velvetleaf: 0 (Herbicidal rate of 5% or less (almost no effect))
Persian speedwell [17]; [26]
  herbicidal effect rating, R: persian speedwell: 0 (Herbicidal rate of 5% or less (almost no effect))
Wild oat [18]; [26]
  herbicidal effect rating, I: wild oat: 1 (Herbicidal rate of 5% or more and less than 20%)
Chickweed [19]; 320 g/ha
  herbicidal effect grade, P: chickweed: 5 (Herbicidal rate of 90% or more (almost completely withered))
Blackgrass [20]; 320 g/ha
  herbicidal effect grade, J: blackgrass: 4 (Herbicidal rate of 70% or more and less than 90%)
Barnyard grass [21]; 320 g/ha
  herbicidal effect grade, H: barnyard grass: 5 (Herbicidal rate of 90% or more (almost completely withered))
Barnyard grass [22]
  herbicidal effect on H (barnyard grass), rating 0-5: 5 (Herbicidal rate of 90% or more (almost completely withered))
Wild oat [23]; 320 g/ha
  herbicidal effect grade, I: wild oat: 4 (Herbicidal rate of 70% or more and less than 90%)
Velvetleaf [24]; 320 g/ha
  herbicidal effect grade, M: velvetleaf: 3 (Herbicidal rate of 40% or more and less than 70%)
Windgrass [25]; [26]
  herbicidal effect rating, L: windgrass: 3 (Herbicidal rate of 40% or more and less than 70%)

## Cc1nn(C)c(=O)c(-c2c(-c3ccc(OS(C)(=O)=O)cc3)sc3ccccc23)c1O [1-146]
Windgrass [1]; AAH 320 g/ha
  L: windgrass, herbicidal effect: 0 (Herbicidal rate of 5% or less (almost no effect))
Italian ryegrass [2]; AAH 320 g/ha
  K: Italian ryegrass, herbicidal effect rating: 4 (Herbicidal rate of 70% or more and less than 90%)
Blackgrass [3]; AAH 320 g/ha
  J: blackgrass, herbicidal effect rating: 0 (Herbicidal rate of 5% or less (almost no effect))
Persian speedwell [4]; AAH 320 g/ha
  R: persian speedwell, herbicidal effect: 5 (Herbicidal rate of 90% or more (almost completely withered))
Chinese sprangletop
  herbicidal effect on D (Chinese sprangletop), rating 0-5: 2 (Herbicidal rate of 20% or more and less than 40%)
Chickweed [5]; AAH 320 g/ha
  P: chickweed, herbicidal effect rating: 4 (Herbicidal rate of 70% or more and less than 90%)
Green foxtail [6]; AAH 320 g/ha
  G: green foxtail, herbicidal effect: 5 (Herbicidal rate of 90% or more (almost completely withered))
Lambsquarters [7]; AAH 320 g/ha
  O: lambsquarters, herbicidal effect: 3 (Herbicidal rate of 40% or more and less than 70%)
oval-leafed pondweed
  Herbicidal effect on C: oval-leafed pondweed (grade 0-5): 0 (Herbicidal rate of 5% or less (almost no effect))
Japanese bulrush
  Herbicidal effect on B: Japanese bulrush (grade 0-5): 0 (Herbicidal rate of 5% or less (almost no effect))
Southern crabgrass [8]; AAH 320 g/ha
  F: southern crabgrass, herbicidal effect: 4 (Herbicidal rate of 70% or more and less than 90%)
Lambsquarters [9]; AAH 320 g/ha
  O: lambsquarters, herbicidal effect rating: 5 (Herbicidal rate of 90% or more (almost completely withered))
Southern crabgrass [10]; AAH 320 g/ha
  F: southern crabgrass, herbicidal effect rating: 4 (Herbicidal rate of 70% or more and less than 90%)
Redroot pigweed [11]; AAH 320 g/ha
  N: redroot pigweed, herbicidal effect: 3 (Herbicidal rate of 40% or more and less than 70%)
Green foxtail [12]; AAH 320 g/ha
  G: green foxtail, herbicidal effect rating: 5 (Herbicidal rate of 90% or more (almost completely withered))
Redroot pigweed [13]; AAH 320 g/ha
  N: redroot pigweed, herbicidal effect rating: 5 (Herbicidal rate of 90% or more (almost completely withered))
Late watergrass
  Herbicidal effect on A: late watergrass (grade 0-5): 3 (Herbicidal rate of 40% or more and less than 70%)
Italian ryegrass [14]; AAH 320 g/ha
  K: Italian ryegrass, herbicidal effect: 5 (Herbicidal rate of 90% or more (almost completely withered))
Barnyard grass [15]; AAH 320 g/ha
  H: barnyard grass, herbicidal effect rating: 5 (Herbicidal rate of 90% or more (almost completely withered))
Velvetleaf [16]; AAH 320 g/ha
  M: velvetleaf, herbicidal effect rating: 5 (Herbicidal rate of 90% or more (almost completely withered))
Persian speedwell [17]; AAH 320 g/ha
  R: persian speedwell, herbicidal effect rating: 5 (Herbicidal rate of 90% or more (almost completely withered))
Wild oat [18]; AAH 320 g/ha
  I: wild oat, herbicidal effect rating: 0 (Herbicidal rate of 5% or less (almost no effect))
Chickweed [19]; AAH 320 g/ha
  P: chickweed, herbicidal effect: 5 (Herbicidal rate of 90% or more (almost completely withered))
Blackgrass [20]; AAH 320 g/ha
  J: blackgrass, herbicidal effect: 1 (Herbicidal rate of 5% or more and less than 20%)
Barnyard grass [21]; AAH 320 g/ha
  H: barnyard grass, herbicidal effect: 5 (Herbicidal rate of 90% or more (almost completely withered))
Barnyard grass [22]
  herbicidal effect on H (barnyard grass), rating 0-5: 5 (Herbicidal rate of 90% or more (almost completely withered))
Wild oat [23]; AAH 320 g/ha
  I: wild oat, herbicidal effect: 0 (Herbicidal rate of 5% or less (almost no effect))
Velvetleaf [24]; AAH 320 g/ha
  M: velvetleaf, herbicidal effect: 4 (Herbicidal rate of 70% or more and less than 90%)
Windgrass [25]; AAH 320 g/ha
  L: windgrass, herbicidal effect rating: 0 (Herbicidal rate of 5% or less (almost no effect))
